Measurements taken from patent US12655106B2 (Eikonizo Therapeutics, Inc., priority 2021, dated 2026).

Tests used:
[1] = biological target: T1, Full length Human HDAC8 (Homo sapiens, UniProt Q9BY41); experiment: Caliper endpoint assay for HDAC enzymatic activity (HDAC8); type: biochemical; settings: in vitro enzymatic, 30 min pre-incubation, 1 μM substrate peptide
T1 construct: Full length Human HDAC8; HIS (N); host or cells: baculovirus expression system
T1 sequence (Q9BY41 1-377): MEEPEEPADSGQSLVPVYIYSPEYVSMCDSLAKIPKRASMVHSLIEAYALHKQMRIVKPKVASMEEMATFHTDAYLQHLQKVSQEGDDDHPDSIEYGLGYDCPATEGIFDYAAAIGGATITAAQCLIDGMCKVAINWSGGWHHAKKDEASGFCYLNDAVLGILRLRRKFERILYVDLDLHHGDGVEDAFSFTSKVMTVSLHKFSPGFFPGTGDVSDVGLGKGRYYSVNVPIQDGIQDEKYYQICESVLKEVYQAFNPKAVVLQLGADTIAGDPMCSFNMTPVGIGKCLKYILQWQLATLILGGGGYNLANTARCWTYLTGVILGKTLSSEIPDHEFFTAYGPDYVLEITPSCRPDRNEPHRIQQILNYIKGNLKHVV

[2] = biological target: T2, Full length Human HDAC6 (Homo sapiens, UniProt Q9UBN7); experiment: Caliper endpoint assay for HDAC enzymatic activity (HDAC6); type: biochemical; settings: for IC50: in vitro enzymatic, Caliper endpoint assay, 30 min pre-incubation, 1 μM substrate peptide; for Selectivity (6 v 8): ratio of HDAC8 IC50/HDAC6 IC50
T2 construct: Full length Human HDAC6; FLAG (C); host or cells: baculovirus expression system
T2 sequence (Q9UBN7 1-1215): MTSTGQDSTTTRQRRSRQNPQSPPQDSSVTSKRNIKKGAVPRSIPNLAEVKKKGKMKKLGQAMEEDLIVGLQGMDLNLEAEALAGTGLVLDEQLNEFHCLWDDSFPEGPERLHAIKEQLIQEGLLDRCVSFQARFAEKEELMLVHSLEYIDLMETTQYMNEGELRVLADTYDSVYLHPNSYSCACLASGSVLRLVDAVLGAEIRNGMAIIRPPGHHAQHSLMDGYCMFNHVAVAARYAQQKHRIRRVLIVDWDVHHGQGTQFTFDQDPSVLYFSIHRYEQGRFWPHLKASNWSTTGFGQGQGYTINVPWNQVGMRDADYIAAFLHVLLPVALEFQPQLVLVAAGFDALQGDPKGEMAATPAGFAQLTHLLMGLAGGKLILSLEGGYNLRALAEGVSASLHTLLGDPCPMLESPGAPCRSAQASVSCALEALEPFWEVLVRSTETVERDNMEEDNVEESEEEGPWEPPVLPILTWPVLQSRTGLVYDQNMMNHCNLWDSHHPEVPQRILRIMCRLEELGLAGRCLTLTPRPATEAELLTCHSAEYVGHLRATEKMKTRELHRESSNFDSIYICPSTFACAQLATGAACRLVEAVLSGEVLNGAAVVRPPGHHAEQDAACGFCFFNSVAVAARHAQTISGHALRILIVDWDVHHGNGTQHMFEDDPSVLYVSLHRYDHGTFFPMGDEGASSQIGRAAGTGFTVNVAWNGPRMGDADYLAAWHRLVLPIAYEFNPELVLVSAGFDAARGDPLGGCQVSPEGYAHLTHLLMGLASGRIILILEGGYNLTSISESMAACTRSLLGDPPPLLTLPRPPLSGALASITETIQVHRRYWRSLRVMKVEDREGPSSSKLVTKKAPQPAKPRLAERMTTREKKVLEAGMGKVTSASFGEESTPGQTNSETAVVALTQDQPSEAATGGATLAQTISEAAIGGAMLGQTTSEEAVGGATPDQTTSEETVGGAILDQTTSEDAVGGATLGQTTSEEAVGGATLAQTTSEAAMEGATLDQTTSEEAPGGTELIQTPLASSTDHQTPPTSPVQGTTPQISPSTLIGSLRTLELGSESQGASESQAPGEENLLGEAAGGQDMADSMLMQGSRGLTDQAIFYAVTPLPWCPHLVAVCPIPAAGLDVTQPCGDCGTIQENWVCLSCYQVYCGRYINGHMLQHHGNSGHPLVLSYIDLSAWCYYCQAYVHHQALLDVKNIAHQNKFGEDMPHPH

Row | SMILES | IC50 [1] [nM] | IC50 [2] [nM] | Selectivity (6 v 8) [2]
1 | O=C(NO)c1cc(F)c2c(c1)CCN(C1CCC3(C1)CN(C1CC1)C3)C2 (stereo not drawn) [Compound 390, 2-(2-cyclopropyl-2-azaspiro[3.4]octan-6-yl)-8-fluoro-3,4-dihydro-1H-isoquinoline-6-carbohydroxamic acid] | 10000 to 100000 | 100 to 1000 | III (III: >10-100)
2 | CC(=O)N1CC2(CCC(N3CCc4cc(C(=O)NO)cc(F)c4C3)C2)C1 (stereo not drawn) [Compound 391, 2-(2-acetyl-2-azaspiro[3.4]octan-6-yl)-8-fluoro-N-hydroxy-1,2,3,4-tetrahydroisoquinoline-6-carboxamide] | 10000 to 100000 | 1 to 100 | IV (IV: >100-1000)
3 | O=C(NO)c1cc(F)c2c(c1)CCN(C1CCC3(CCNCC3)C1)C2 (stereo not drawn) [Compound 416, 8-fluoro-N-hydroxy-2-(8-azaspiro[4.5]decan-2-yl)-1,2,3,4-tetrahydroisoquinoline-6-carboxamide] | 10000 to 100000 | 1 to 100 | IV (IV: >100-1000)
4 | CN1CCC2(CCC(N3CCc4cc(C(=O)NO)cc(F)c4C3)C2)CC1 (stereo not drawn) [Compound 417, 8-fluoro-N-hydroxy-2-(8-methyl-8-azaspiro[4.5]decan-2-yl)-1,2,3,4-tetrahydroisoquinoline-6-carboxamide] | 10000 to 100000 | 1 to 100 | IV (IV: >100-1000)
5 | O=C(NO)c1cc(F)c2c(c1)CCN(C1CCC3(CCN(C4CC4)CC3)C1)C2 (stereo not drawn) [Compound 418, N-2-(8-cyclopropyl-8-azaspiro[4.5]decan-2-yl)-8-fluoro-N-hydroxy-1,2,3,4-tetrahydroisoquinoline-6-carboxamide] | 1000 to 10000 | 1 to 100 | IV (IV: >100-1000)
6 | CC(=O)N1CCC2(CCC(N3CCc4cc(C(=O)NO)cc(F)c4C3)C2)CC1 (stereo not drawn) [Compound 419, 2-(8-acetyl-8-azaspiro[4.5]decan-3-yl)-8-fluoro-3,4-dihydro-1H-isoquinoline-6-carbohydroxamic acid] | 10000 to 100000 | 1 to 100 | IV (IV: >100-1000)
7 | O=C(NO)c1cc(F)c2c(c1)CCN(C1CCC3(CC1)COC3)C2 [Compound 425, 8-fluoro-2-(2-oxaspiro[3.5]nonan-7-yl)-3,4-dihydro-1H-isoquinoline-6-carbohydroxamic acid] | 10000 to 100000 | 1 to 100 | V (V: >1000)
8 | O=C(NO)c1cc(F)c2c(c1)CCN(C1CCC3(CC1)C[S+]([O-])C3)C2 (stereo not drawn) [Compound 426, 8-fluoro-2-(2-oxo-2MA-thiaspiro[3.5]nonan-7-yl)-3,4-dihydro-1H-isoquinoline-6-carbohydroxamic acid] | > 100000 | 1 to 100 | V (V: >1000)
9 | CN1CC2(CCC(N3CCc4cc(C(=O)NO)cc(F)c4C3)CC2)C1 [Compound 427, 8-fluoro-2-(2-methyl-2-azaspiro[3.5]nonan-7-yl)-3,4-dihydro-1H-isoquinoline-6-carbohydroxamic acid] | 10000 to 100000 | 1 to 100 | V (V: >1000)
10 | CC(=O)N1CC2(CCC(N3CCc4cc(C(=O)NO)cc(F)c4C3)CC2)C1 [Compound 429, 2-(2-acetyl-2-azaspiro[3.5]nonan-7-yl)-8-fluoro-3,4-dihydro-1H-isoquinoline-6-carbohydroxamic acid] | 10000 to 100000 | 1 to 100 | IV (IV: >100-1000)
11 | O=C(NO)c1cc(F)c2c(c1)CCN(C1CCC3(CC1)CN(Cc1ccccc1)C3)C2 [Compound 430, 2-(2-benzyl-2-azaspiro[3.5]nonan-7-yl)-8-fluoro-3,4-dihydro-1H-isoquinoline-6-carbohydroxamic acid] | 1000 to 10000 | 1 to 100 | IV (IV: >100-1000)
12 | O=C(NO)c1cc(F)c2c(c1)CCN(CC13CCC(CC1)C(=O)N3)C2 [Compound 461, 8-fluoro-2-[(3-oxo-2-azabicyclo[2.2.2]octan-1-yl)methyl]-3,4-dihydro-1H-isoquinoline-6-carbohydroxamic acid] | 1000 to 10000 | 1 to 100 | V (V: >1000)
